Measured values published in article PMC9814792 (Communications Chemistry, 2022).
pIC50: −log10 of the molar value.

What was measured:
A2780 cells = test: 72 h cell viability (MTT) assay; type: cell-based, human; conditions: A2780, 72 h continuous exposure; read-out: IC50 value (95% confidence interval)
Procedure: (§1) Cells were seeded (3–4 ×10^3 cells/well) in 96-well plates in 100 µL and after 24 h recovery treated with 100 µL of compounds at the indicated concentrations in triplicates. After 72 h drug exposure cell viability was determined by 3-(4,5-dimethylthiazol-2-yl)-2,5-diphenyltetrazolium bromide (MTT)-vitality assay (EZ4U, Biomedica, Vienna, Austria) following the manufacturer’s recommendations, as published. Absorbance was measured at 450 nm (at 620 nm as reference) using the multimode plate reader Tecan Infinite 200 Pro (Zurich, Switzerland). Cytotoxicity was expressed as IC50 values calculated from full dose-response curves using the 4 parameter nonlinear regression model of GraphPad Prism 8 software (La Jolla, CA, USA).

A2780/Cis cells = test: 72 h cell viability (MTT) assay; type: cell-based, human
Procedure: as §1

HCT116/OxR cells = test: 72 h cell viability (MTT) assay; type: cell-based, human; conditions: HCT116/OxR, 72 h continuous exposure; read-out: IC50 value (95% confidence interval)
Procedure: Absorbance was measured at 450 nm (at 620 nm as reference) using the multimode plate reader Tecan Infinite 200 Pro (Zurich, Switzerland). Cytotoxicity was expressed as IC50 values calculated from full dose-response curves using the 4 parameter nonlinear regression model of GraphPad Prism 8 software (La Jolla, CA, USA).

BEC endothelial cells = test: 72 h cell viability (MTT) assay; type: cell-based, human
Procedure: as §1

HCT116 cells = test: 72 h cell viability (MTT) assay; type: cell-based, human; conditions: HCT116, 72 h continuous exposure; read-out: IC50 value (95% confidence interval)
Procedure: as §1

HaCat keratinocytes = test: 72 h cell viability (MTT) assay; type: cell-based, human
Procedure: as §1

[1] = test system: HCT116 and HCT116/OxR cells; test: In vitro platinum cell uptake by ICP-MS; type: cell-based, human; conditions: 3 h exposure
Procedure: Cells were seeded at 1.5 ×10^5 cells/well in six-well plates in 1.5 mL and after 24 h recovery treated with 500 µL of compounds at the indicated concentrations in triplicates. After 3 h drug exposure, cells were detached, washed twice with phosphate-buffered saline (PBS), dried at RT for 15 min and lysed in 100 µL HNO3 (69%, Rotipuran Supra, Carl Roth, Karlsruhe, Germany) for 1 h at RT. The lysate was added to fresh tubes containing 200 µL ddH2O. ICP-MS measurements were performed with an Agilent 8800 ICP-MS/MS instrument (Agilent Technologies, Tokyo, Japan). The sample introduction system consisted of a MicroMist nebulizer (200 μL min^−1 nominal sample uptake) and a quartz double-pass spray chamber. The instrument was tuned on a daily basis in order to achieve maximum sensitivity, low oxide formation, and low doubly charged ratios. Platinum was monitored in no gas mode with an integration time of 0.3 s. The flow injection measurements were performed with a bioinert HPLC 1260 (Agilent Technologies, Waldbronn, Germany), which was directly connected to the nebulizer of the ICP-MS/MS instrument with a PEEK tubing. The following chromatographic conditions were used: injection volume: 10 µL; flow rate: 0.30 mL min^-1; isocratic elution; CH3COONH4 (50 mM, pH = 6.8) aqueous solution was employed as mobile phase. The data were recorded and evaluated with the Agilent MassHunter Chromatography software package, MassHunter 4.6., 2019.

[2] = test system: HCT116 and HCT116/OxR cells; test: Cellular GSH content (GSH/GSSG-Glo); type: cell-based, human; conditions: 24 h exposure, single agent
Procedure: (§2) GSH levels in HCT116 and HCT116/OxR cells (7.5 × 10^4 cells per well in 96-well plates, in triplicate), or in CT26 tumor tissues (25–50 mg/sample) were determined using the luminescence-based detection system GSH/GSSG-Glo^TM assay (Promega, Madison, WI) following the manufacturer’s recommendations. Quantifications are based on the comparison with a GSH standard curve delivered in the assay and normalized to the total protein content of the samples determined by the Micro BCA^TM protein assay kit (Thermo Scientific).

[3] = Serum pharmacokinetics (platinum by ICP-MS) after single dose; type: in vivo, BALB/c mice; conditions: for serum half-life (fast), two-phase decay model / serum half-life (slow), two-phase decay model / serum half-life, one-phase decay model: serum platinum
Procedure: Blood was drawn after 5 min, 30 min, 6 h, 24 h, 72 h, 1 and 2 weeks from the facial vein as published. Serum was isolated by centrifugation at 900 g for 10 min for two times and stored at –80 °C. In addition, blood samples and tissues from the allograft experiment after the two-weeks therapy experiment were analyzed. Digestion of tissue (approx. 10–30 mg gravimetrically weighted) was performed with 2 mL of approx. 20% nitric acid and 100 µL H2O2 using an open vessel graphite digestion system (coated graphite heating plate, coated sample holder-top for 25 mL vials, perfluoroalkoxy (PFA) vials and PFA lids; Labter, ODLAB; AHF Analysentechnik AG; Germany). HNO3 (67–69%, suprapur for trace metal analysis, NORMATOM; VWR international, Austria) and conc. H2O2 suprapur (Merck, 30%) were used without further purification. Ultrapure water (18.2 MΩ cm, Milli-Q Advantage, Darmstadt, Germany) was used for all dilutions for ICP-MS measurements. Platinum and rhenium standards for ICP-MS measurements were derived from CPI International (Amsterdam, The Netherlands). The platinum content was determined using an Agilent 7800 ICP-MS instrument. The ICP-MS Agilent 7800® (Agilent Technologies, Tokyo, Japan) was equipped with an Agilent SPS 4 autosampler (Agilent Technologies, Tokyo, Japan) and a MicroMist nebulizer at a sample uptake rate of approx. 0.2 mL/min. The Agilent MassHunter® software package (Workstation Software, version C.01.04, Build 544.17, Patch 3, 2018) was used for data processing. The instrument was tuned on a daily basis to achieve maximum sensitivity. In case of the single-dose experiment, serum area-under the curve (AUC) and serum half-life (one-phase and two-phase decay models) were determined using the respective non-linear fit regression models of GraphPad Prism software.

CT26 allografts = test: In vivo anticancer activity, CT26 allografts; design: species or system BALB/c mice; conditions: for tumor doubling time extended: CT26 allografts, equimolar doses; for tumor doubling time extended / maximal tumor growth inhibition: twice a week for two weeks; for maximal tumor growth inhibition: day 11, CT26 allografts, equimolar to 9 mg/kg oxaliplatin i.v.; for tumor volumes as compared to solvent controls: first two weeks of treatment
Procedure: (§3) Eight-to nine-week-old female BALB/c mice bred in-house (originally Janvier) were kept in pathogen-free conditions and controlled environment with 12 h light-dark cycle. CT26 cells (5 × 10^5 in 50 µL serum-free RPMI medium) were injected subcutaneously (s.c.) into the right flank of the animals. […] Tumor growth was evaluated by daily recording of tumor size by caliper measurement. […] The reasons were primarily either enhanced tumor size or ulceration. For drug distribution (digestion and ICP-MS measurement details see below), histological and GSH determination experiments, mice were treated twice during one week and sacrificed 24 h after the last drug dosing. The animal experiments were performed according to the regulations of the Ethics Committee for the Care and Use of Laboratory Animals at the Medical University Vienna (proposal number BMBWF-V/3b 2020-0.380.502).

CT26 tumor tissue = test: Tumor tissue markers (mitoses, Ki-67, pH2AX, GSH) after one week of therapy; type: in vivo, BALB/c mice; conditions: for number of mitotic tumor cells as compared to solvent controls: H&E-stained sections
Procedure: (§4) Eight-to nine-week-old female BALB/c mice bred in-house (originally Janvier) were kept in pathogen-free conditions and controlled environment with 12 h light-dark cycle. CT26 cells (5 × 10^5 in 50 µL serum-free RPMI medium) were injected subcutaneously (s.c.) into the right flank of the animals. […] Tumor growth was evaluated by daily recording of tumor size by caliper measurement. […] For drug distribution (digestion and ICP-MS measurement details see below), histological and GSH determination experiments, mice were treated twice during one week and sacrificed 24 h after the last drug dosing. The animal experiments were performed according to the regulations of the Ethics Committee for the Care and Use of Laboratory Animals at the Medical University Vienna (proposal number BMBWF-V/3b 2020-0.380.502).
(§5) Formalin-fixed, paraffin-embedded tissue sections were prepared from tumors and animal organs (animal experiment details see above) and H&E stains performed by standard methods. Mouse-specific Ki-67 rabbit mAb (#12202) and mouse-specific pH2AX rabbit mAb (#9718) were purchased from Cell Signaling Technology (Beverly, MA, USA) and used following the manufacturer’s recommendations in a dilution of 1:200 (Ki-67) and 1:500 (pH2AX) for immunohistochemical staining.
as §2

[4] = test system: kidney, lung, liver sections; test: pH2AX DNA damage staining in healthy organs; type: in vivo, BALB/c mice; conditions: lung and kidney sections
Procedure: as §3, §5

Tolerability in mice = type: in vivo, BALB/c mice
Procedure: as §3

albumin = biological target: T1, albumin (Bos taurus, UniProt P02769); test: Albumin binding in fetal calf serum by SEC-ICP-MS; type: in vitro ADME; conditions: fetal calf serum 37 °C, 100 μM
T1 construct: tissue Sigma-Aldrich; host or cells: fetal calf serum
T1 sequence (P02769 25-607): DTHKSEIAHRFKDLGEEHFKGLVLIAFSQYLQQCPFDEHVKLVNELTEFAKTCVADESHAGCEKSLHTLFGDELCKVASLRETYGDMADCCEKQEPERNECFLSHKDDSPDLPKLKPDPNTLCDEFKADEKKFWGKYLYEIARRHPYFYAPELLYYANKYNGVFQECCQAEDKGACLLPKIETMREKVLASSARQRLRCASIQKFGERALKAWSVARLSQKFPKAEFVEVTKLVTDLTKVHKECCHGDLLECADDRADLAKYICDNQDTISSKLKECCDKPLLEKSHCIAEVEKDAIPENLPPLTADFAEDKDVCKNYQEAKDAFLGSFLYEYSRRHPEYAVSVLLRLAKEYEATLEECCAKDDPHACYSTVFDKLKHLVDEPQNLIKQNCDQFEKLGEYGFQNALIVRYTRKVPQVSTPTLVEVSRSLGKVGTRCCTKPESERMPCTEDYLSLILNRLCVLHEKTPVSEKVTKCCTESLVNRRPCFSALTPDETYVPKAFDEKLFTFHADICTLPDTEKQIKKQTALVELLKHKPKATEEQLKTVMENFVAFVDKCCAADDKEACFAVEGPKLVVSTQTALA
Procedure: Fetal calf serum was purchased from Sigma-Aldrich and buffered with 150 mM phosphate buffer (pH 7.4) to guarantee a stable pH. The platinum(IV) complexes were dissolved in 150 mM phosphate buffer (pH 7.4) to 1 mM and diluted 1:10 in serum to obtain a final concentration of 100 μM. The samples were then incubated in the autosampler at 37 °C for 24 h and analyzed at 0 h, 1 h, 4 h, and 24 h. Between each sample, a pure water blank was measured. For SEC-ICP-MS measurements, an Agilent 1260 Infinity system coupled to an Agilent 7800 ICP-MS equipped with a dynamic reaction cell was used. Oxygen (purity 5.5, Messer AustriaGmbH, Gumpoldskirchen, Austria) was used as reaction gas at 30% and 0.9 L/min flow.

[5] = Tissue/organ platinum distribution in CT26 allograft mice; type: in vivo, BALB/c mice; conditions: two i.v. doses in one week, 24 h after second dosing
Procedure: as §4

[6] = design: method as in PMID 7895599; conditions: patients; cited from earlier work

N.N.[Cl][Pt][Cl] [cisplatin, reference compound]
pIC50 (A2780 cells): 5.72
pIC50 (A2780/Cis cells; A2780/Cis, 72 h continuous exposure, read-out: IC50 value (95% confidence interval)): 5.11
resistance factor (A2780/Cis cells; IC50 A2780/Cis divided by IC50 A2780): 4.1

O=C1[O][Pt]2([NH][C@@H]3CCCC[C@H]3[NH]2)[O]C1=O [oxaliplatin, reference compound]
pIC50 (HCT116/OxR cells): < 5.00
pIC50 (BEC endothelial cells): 4.99
pIC50 (HCT116 cells): 6.24
pIC50 (HaCat keratinocytes): 5.47
intracellular accumulation in HCT116/OxR as compared to parental HCT116 [1]: significantly reduced
impact on cellular GSH content [2]: did not alter the GSH content
serum half-life (fast), two-phase decay model ([3]; single equimolar dose, mice): 0.1528 h
serum half-life (slow), two-phase decay model ([3]; single equimolar dose, mice): 15.38 h
serum half-life, one-phase decay model ([3]; single equimolar dose, mice): 0.2624 h
tumor doubling time extended (CT26 allografts): 1.3 fold
maximal tumor growth inhibition (CT26 allografts): 51.3%
tumor volumes as compared to solvent controls (CT26 allografts): significantly reduced tumor volumes
number of mitotic tumor cells as compared to solvent controls (CT26 tumor tissue; one week of therapy): significantly reduced
GSH content in malignant tissue (CT26 tumor tissue; one week of therapy): distinctly reduced the content of GSH
DNA damage (pH2AX) in healthy organs [4]: induced pH2AX-positive cells in both lung and kidney samples
maximum tolerated dose (MTD) (Tolerability in mice): 9 mg/kg

CCCCS(=N)(=O)CCC(NC(=O)[O][Pt]1([O]C(=O)NCCCCCN2C(=O)C=CC2=O)[O]C(=O)C(=O)[O]1)C(=O)O.NC1CCCCC1N (mixture of isomers) [BSO-OxMal, (OC-6-24)-((1 S)-3-(Butylsulfonimidoyl)-1-carboxypropyl)carbamato(1 R,2 R)-1,2-cyclohexanediamino(5-(2,5-dioxo-2,5-dihydro-1H-pyrrol-1-yl)pentyl)carbamatooxalatoplatinum(IV)]
bound to albumin fraction (albumin; t 0 h): 76%
free (low molecular weight fraction) (albumin; t 0 h): 24%
bound to albumin fraction (albumin; t 1 h): 100%
free (low molecular weight fraction) (albumin; t 1 h): 0%
bound to albumin fraction (albumin; t 4 h): 100%
free (low molecular weight fraction) (albumin; t 4 h): 0%
bound to albumin fraction (albumin; t 24 h): 97%
free (low molecular weight fraction) (albumin; t 24 h): 3%
serum half-life higher as compared to oxaliplatin ([3]; depending on the regression model used): more than 10 fold
serum half-life (fast), two-phase decay model ([3]; single equimolar dose, mice): 1.217 h
serum half-life (slow), two-phase decay model ([3]; single equimolar dose, mice): 22.28 h
serum half-life, one-phase decay model ([3]; single equimolar dose, mice): 3.968 h
increase of AUC (total area) as compared to oxaliplatin ([3]; single equimolar dose, mice): > 12 fold
increased serum platinum levels in comparison to oxaliplatin [5]: more than 20 fold
tumor doubling time extended (CT26 allografts): 1.8 fold
overall survival (CT26 allografts; Kaplan Meier, Mantel-Cox test): significantly increased overall survival
maximal tumor growth inhibition (CT26 allografts): 61.2%
tumor volumes as compared to solvent controls (CT26 allografts): significantly reduced tumor volumes
number of mitotic tumor cells as compared to solvent controls (CT26 tumor tissue; one week of therapy): significantly reduced
DNA damage (pH2AX) in tumor (CT26 tumor tissue; non-necrotic parts of the tumor): distinctly enhanced DNA damage as compared to oxaliplatin
Ki-67 antiproliferative effect (CT26 tumor tissue; non-necrotic tumor regions, one week of therapy): significantly stronger antiproliferative effect
GSH content in malignant tissue (CT26 tumor tissue; one week of therapy): significantly stronger effect
DNA damage (pH2AX) in healthy organs [4]: avoids renal DNA damage

CCCCS(=N)(=O)CC[C@H](N)C(=O)O (stereo partly drawn) [BSO, L-Buthionine-S,R-sulfoximine]
plasma half-life [6]: < 2 h
